# Read-outs that look alike come from different tables or passages of the source.
# Legend:
# [1] = molecular target: T1, (human) A2A adenosine receptors (Homo sapiens, UniProt P29274); assay: Radioligand binding test ([3H]CGS21680 displacement, hA2A HEK-293 cell membranes); conditions: for Ki: read-out: Ki (inhibition constant)
# T1 construct: purchased PerkinElmer Research Products (Boston, Mass.); host or cells: HEK-293
# Method: Cell membranes stably transfected with (human) A2A adenosine receptors were prepared in HEK-293 cells. The cell membranes were obtained from PerkinElmer Research Products (Boston, Mass.).
# The A2A adenosine receptors used were all expressed in the cell membranes. […] (final 25 nM) was added to the diluted cell membrane, and mixed well. 50 μL of the prepared dilution solution of cell membrane was transferred to the 384-well Opti-plate containing compound and incubated at 25° C. for 90 minutes. 100 μL of 0.5% Polyethyleneimine solution (PEI) was added to […]-96 GF/B filter plate, and soaked for 90 minutes at 4° C., then 500 μL of washing buffer/well (50 mM Tris-HCl pH 7.4, 154 mM NaCl) was transferred with Cell Harvester to wash the […]-96 GF/B filter plate twice. The mixed system in the Opti-plate was transferred to the washed […]-96 GF/B filter plate, 500 μL of washing buffer/well (50 mM Tris-HCl pH 7.4, 154 mM NaCl) was used to wash the […]-96 GF/B filter plate 9 times. Incubation was performed in 37° C. incubator for 3 minutes. 40 μL of ULTIMA GOLD scintillation solution (Perkin Elmer, Cat #77-16061) was added to each well, CPM (count per minute) value was read by a MicroBeta liquid scintillation counter (PerkinElmer).
# [2] = calculated from IC50 by Cheng and Prusoff equation, [S] 25 nM, Km […] nM
# T1 sequence (P29274 whole entry): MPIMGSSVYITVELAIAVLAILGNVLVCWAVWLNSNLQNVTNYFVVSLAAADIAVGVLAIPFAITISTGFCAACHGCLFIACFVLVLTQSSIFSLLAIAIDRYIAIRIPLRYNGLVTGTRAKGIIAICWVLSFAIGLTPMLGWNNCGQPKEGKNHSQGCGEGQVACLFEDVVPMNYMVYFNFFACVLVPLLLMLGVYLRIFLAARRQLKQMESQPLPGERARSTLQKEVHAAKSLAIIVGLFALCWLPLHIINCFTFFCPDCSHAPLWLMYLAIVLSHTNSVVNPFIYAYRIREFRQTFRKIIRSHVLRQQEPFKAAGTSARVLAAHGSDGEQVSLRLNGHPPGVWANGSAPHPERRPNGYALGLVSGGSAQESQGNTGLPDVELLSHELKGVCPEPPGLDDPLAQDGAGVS
IC50 [1] [nM],"Ki [1, 2] [nM]",melting point [°C],Ki [1] [nM],Compound
462,216,276,–,"Nc1nc(N/N=C/c2ccc(-n3ccnc3)cc2)nc2c1ncn2[C@@H]1O[C@H](CO)[C@@H](O)[C@H]1O [Compound 12, (2R,3R,4S,5R)-2-{2-{2-[(E)-4-(1H-imidazol-1-yl)benzylidene]hydrazino}-6-amino-9H-purin-9-yl}-5-(hydroxymethyl)tetrahydrofuran-3,4-diol]"
479,–,218,224,"CCCOc1ccc(/C=N/Nc2nc(N)c3ncn([C@@H]4O[C@H](CO)C(O)C4O)c3n2)cc1 (stereo partly drawn) [Compound 13, (2R,3R,45,5R)-2-{6-amino-2-{2-[(E)-4-propoxybenzylidene]hydrazino}-9H-purine-9-yl}-5-(hydroxymethyl)tetrahydrofuran-3,4-diol]"
–,–,260,–,N#Cc1ccccc1/C=N/Nc1nc(N)c2ncn([C@@H]3O[C@H](CO)C(O)C3O)c2n1 (stereo partly shown) [Compound 14]
3460,1620,198,–,"CCOc1cc(/C=N/Nc2nc(N)c3ncn([C@@H]4O[C@H](CO)[C@@H](O)[C@H]4O)c3n2)ccc1O [Compound 16, (2R,3R,4S,5R)-2-{6-amino-2-{2-[(E)-3-ethoxy-4-hydroxybenzylidene]hydrazino}-9H-purin-9-yl}-5-(hydroxymethyl)tetrahydrofuran-3,4-diol]"
1710,800,186,–,"Nc1nc(N/N=C/c2ccc(N3CCOCC3)cc2)nc2c1ncn2[C@@H]1O[C@H](CO)[C@@H](O)[C@H]1O [Compound 17, (2R,3R,4S,5R)-2-{6-amino-2-{2-[(E)-4-morpholinobenzylidene]hydrazino}-9H-purin-9-yl}-5-(hydroxymethyl)tetrahydrofuran-3,4-diol]"
> 10000,–,246,–,"COc1cc(/C=N/Nc2nc(N)c3ncn([C@@H]4O[C@H](CO)[C@@H](O)[C@H]4O)c3n2)cc(OC)c1OC [Compound 18, (2R,3R,4S,5R)-2-{6-amino-2-{2-[(E)-3,4,5-trimethoxybenzylidene]hydrazino}-9H-purin-9-yl}-5-(hydroxymethyl)tetrahydrofuran-3,4-diol]"
216,101,146,–,"COc1cc(/C=N/Nc2nc(N)c3ncn([C@@H]4O[C@H](CO)[C@@H](O)[C@H]4O)c3n2)ccc1OCc1ccccc1 [Compound 19, (2R,3R,4S,5R)-2-{6-amino-2-{2-[(E)-4-(benzyloxy)-3-methoxybenzylidene]hydrazino}-9H-purin-9-yl}-5-(hydroxymethyl)tetrahydrofuran-3,4-diol]"

# Further lines, the compound ahead of its results:
Compound,IC50 [1] [nM],"Ki [1, 2] [nM]",melting point [°C],Ki [1] [nM]
"CC(=O)Nc1ccc(/C=N/Nc2nc(N)c3ncn([C@@H]4O[C@H](CO)[C@@H](O)[C@H]4O)c3n2)cc1 [Compound 1, N-{4-{(E)-{2-{6-amino-9-[(2R,3R,4S,5R)-3,4-dihydroxy-5-(hydroxymethyl)tetrahydrofuran-2-yl]-9H-purin-2-yl}hydrazono}methyl}phenyl}acetamide]",2840,1330,126,–
"Nc1nc(N/N=C/c2ccc(C(F)(F)F)cc2C(F)(F)F)nc2c1ncn2[C@@H]1O[C@H](CO)[C@@H](O)[C@H]1O [Compound 3, (2R,3R,4S,5R)-2-{6-amino-2-{2-[(E)-2,4-bis(trifluoromethyl)benzylidene]hydrazino}-9H-purin-9-yl}-5-(hydroxymethyl)tetrahydrofuran-3,4-diol]",> 10000,–,239,–
"Nc1nc(N/N=C/c2ccc(N(c3ccccc3)c3ccccc3)cc2)nc2c1ncn2[C@@H]1O[C@H](CO)[C@@H](O)[C@H]1O [Compound 4, (2R,3R,4S,5R)-2-{6-amino-2-{2-[(E)-4-(diphenylamino)benzylidene]hydrazino}-9H-purin-9-yl}-5-(hydroxymethyl)tetrahydrofuran-3,4-diol]",142,66.7,184,–
"Nc1nc(N/N=C/c2cccc(OCc3ccccc3)c2)nc2c1ncn2[C@@H]1O[C@H](CO)[C@@H](O)[C@H]1O [Compound 6, (2R,3R,4S,5R)-2-{6-amino-2-{2-[(E)-3-(benzyloxy)benzylidene] hydrazino}-9H-purin-9-yl}-5-(hydroxymethyl)tetrahydrofuran-3,4-diol]",369,173,148,–
"Nc1nc(N/N=C/c2ccc(Cl)c(C(F)(F)F)c2)nc2c1ncn2[C@@H]1O[C@H](CO)[C@@H](O)[C@H]1O [Compound 7, (2R,3R,4S,5R)-2-{6-amino-2-{2-[(E)-4-chloro-3-(trifluoromethyl)benzylidene]hydrazino}-9H-purin-9-yl}-5-(hydroxymethyl)tetrahydrofuran-3,4-diol]",1710,801,242,–
"Nc1nc(N/N=C/c2ccc(-c3ccccn3)cc2)nc2c1ncn2[C@@H]1O[C@H](CO)[C@@H](O)[C@H]1O [Compound 8, (2R,3R,4S,5R)-2-{6-amino-2-{2-[(E)-4-(pyridin-2-yl)benzylidene] hydrazino}-9H-purin-9-yl}-5-(hydroxymethyl)tetrahydrofuran-3,4-diol]",445,208,164,–
"Nc1nc(N/N=C/c2ccc(N3CCCC3)cc2)nc2c1ncn2[C@@H]1O[C@H](CO)[C@@H](O)[C@H]1O [Compound 10, (2R,3R,4S,5R)-2-{6-amino-2-{2-[(E)-4-(pyrrolidin-1-yl)benzylidene]hydrazino}-9H-purin-9-yl}-5-(hydroxymethyl)tetrahydrofuran-3,4-diol]",> 10000,–,174,–
"Nc1nc(N/N=C/c2ccc(C(F)(F)F)cc2)nc2c1ncn2[C@@H]1O[C@H](CO)[C@@H](O)[C@H]1O [Compound 11, (2R,3R,4S,5R)-2-{6-amino-2-{2-[(E)-4-(trifluoromethyl)benzylidene]hydrazino}-9H-purin-9-yl)-5-(hydroxymethyl)tetrahydrofuran-3,4-diol]",131,61.3,260,–
